Source: patent US11878966B2, “Substituted 4-benzyl and 4-benzoyl piperidine derivates” (89BIO LTD, priority 2015, dated 2024)
Counter-ions that a name gives are not always drawn.

Columns and labels:
[1] = molecular target: T1, recombinant human baculovirus-expressed GST-tagged FASN (Homo sapiens, UniProt P49327); test: FASN enzyme activity assay: fluorescence-based detection of CoA with CPM; type: biochemical; conditions: 5 nM FASN, 150 μM NADPH, 10 μM acetyl-CoA, 25 μM malonyl-CoA, 90 minutes incubation
T1 construct: GST; host or cells: baculovirus expression system (insect cells implied)
Summary of the method: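 GST-tagged human FASN (5 nM, baculovirus-expressed) in 50 mM HEPES pH 7.5 with 150 μM NADPH, 10 μM acetyl-CoA and 25 μM malonyl-CoA, 0.5% DMSO, started with malonyl-CoA and run 90 min. CoA was detected with CPM (30 min; ex 390/em 530 nm). IC50 came from sigmoidal variable-slope fits of % inhibition.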

T1 sequence (P49327 whole entry): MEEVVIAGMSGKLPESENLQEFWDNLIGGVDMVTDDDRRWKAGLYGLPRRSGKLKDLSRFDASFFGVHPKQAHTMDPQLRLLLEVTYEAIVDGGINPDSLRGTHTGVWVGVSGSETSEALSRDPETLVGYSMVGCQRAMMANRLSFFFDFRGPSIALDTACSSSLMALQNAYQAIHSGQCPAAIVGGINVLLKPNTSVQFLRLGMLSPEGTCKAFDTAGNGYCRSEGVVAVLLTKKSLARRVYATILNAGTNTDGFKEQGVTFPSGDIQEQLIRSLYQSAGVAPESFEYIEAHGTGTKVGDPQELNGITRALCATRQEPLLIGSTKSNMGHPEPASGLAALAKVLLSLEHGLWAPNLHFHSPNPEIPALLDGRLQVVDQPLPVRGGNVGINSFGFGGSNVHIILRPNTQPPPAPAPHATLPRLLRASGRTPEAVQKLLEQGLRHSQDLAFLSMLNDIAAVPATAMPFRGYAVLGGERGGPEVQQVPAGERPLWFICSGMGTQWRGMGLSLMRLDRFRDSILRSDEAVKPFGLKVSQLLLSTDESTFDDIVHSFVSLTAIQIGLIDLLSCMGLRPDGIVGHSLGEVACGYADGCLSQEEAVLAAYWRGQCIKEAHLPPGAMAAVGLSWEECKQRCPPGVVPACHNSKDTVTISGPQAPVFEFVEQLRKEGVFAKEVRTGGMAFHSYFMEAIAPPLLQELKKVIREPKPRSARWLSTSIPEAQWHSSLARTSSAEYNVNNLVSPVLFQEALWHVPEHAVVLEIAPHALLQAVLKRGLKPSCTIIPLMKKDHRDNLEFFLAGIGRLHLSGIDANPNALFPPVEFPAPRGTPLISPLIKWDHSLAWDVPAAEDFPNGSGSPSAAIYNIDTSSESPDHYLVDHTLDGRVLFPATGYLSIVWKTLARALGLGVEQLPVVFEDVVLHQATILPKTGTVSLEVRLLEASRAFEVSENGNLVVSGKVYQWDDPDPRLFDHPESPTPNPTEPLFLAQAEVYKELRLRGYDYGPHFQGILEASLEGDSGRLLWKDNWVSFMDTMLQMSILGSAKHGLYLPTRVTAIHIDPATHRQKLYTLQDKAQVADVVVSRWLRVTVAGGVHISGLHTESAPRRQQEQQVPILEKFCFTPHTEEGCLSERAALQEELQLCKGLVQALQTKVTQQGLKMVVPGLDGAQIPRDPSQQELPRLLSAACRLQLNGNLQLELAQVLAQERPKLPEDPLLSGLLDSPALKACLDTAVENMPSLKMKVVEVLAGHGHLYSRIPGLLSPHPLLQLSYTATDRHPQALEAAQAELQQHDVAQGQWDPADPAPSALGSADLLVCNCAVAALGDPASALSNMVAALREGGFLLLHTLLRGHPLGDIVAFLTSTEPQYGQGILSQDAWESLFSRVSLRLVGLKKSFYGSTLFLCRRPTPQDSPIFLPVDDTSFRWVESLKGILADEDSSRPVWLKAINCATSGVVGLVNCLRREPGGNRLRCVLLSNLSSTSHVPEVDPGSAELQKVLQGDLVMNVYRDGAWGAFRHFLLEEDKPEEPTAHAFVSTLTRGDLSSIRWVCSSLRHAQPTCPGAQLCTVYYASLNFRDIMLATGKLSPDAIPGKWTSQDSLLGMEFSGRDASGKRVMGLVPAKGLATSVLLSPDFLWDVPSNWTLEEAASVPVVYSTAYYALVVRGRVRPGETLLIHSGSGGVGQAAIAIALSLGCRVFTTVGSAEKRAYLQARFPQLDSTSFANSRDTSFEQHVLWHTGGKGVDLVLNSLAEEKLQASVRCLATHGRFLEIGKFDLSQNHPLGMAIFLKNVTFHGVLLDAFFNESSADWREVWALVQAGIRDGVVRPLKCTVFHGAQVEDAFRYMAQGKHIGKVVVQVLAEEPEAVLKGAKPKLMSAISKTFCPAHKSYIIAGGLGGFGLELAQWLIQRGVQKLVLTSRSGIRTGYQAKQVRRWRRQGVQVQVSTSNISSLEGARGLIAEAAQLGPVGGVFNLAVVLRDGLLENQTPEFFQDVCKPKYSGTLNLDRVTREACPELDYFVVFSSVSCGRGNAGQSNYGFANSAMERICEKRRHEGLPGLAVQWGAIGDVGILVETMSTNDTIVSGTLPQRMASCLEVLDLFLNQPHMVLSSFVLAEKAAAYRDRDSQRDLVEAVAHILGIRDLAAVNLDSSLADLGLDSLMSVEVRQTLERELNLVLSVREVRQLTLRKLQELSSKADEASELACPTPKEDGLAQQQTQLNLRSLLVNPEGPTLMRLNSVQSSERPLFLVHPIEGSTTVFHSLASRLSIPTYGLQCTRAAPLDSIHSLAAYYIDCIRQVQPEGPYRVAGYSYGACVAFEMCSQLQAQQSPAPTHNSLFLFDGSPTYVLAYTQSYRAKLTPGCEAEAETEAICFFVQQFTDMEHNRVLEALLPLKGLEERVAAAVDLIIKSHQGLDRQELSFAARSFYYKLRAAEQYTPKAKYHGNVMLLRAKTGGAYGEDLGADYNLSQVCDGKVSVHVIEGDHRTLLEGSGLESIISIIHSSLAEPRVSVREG

For CCC(=O)N1CCC(C(C)c2ccc(-c3cnc4ccccc4c3)cc2)CC1 (centres unmarked) (as salt: HCl) [Example 39, 1-(4-(1-(4-(quinolin-3-yl)phenyl)ethyl)piperidin-1-yl)propan-1-one], the melting point was 178 to 180 °C.

Molecule CCC(=O)N1CCC(C(C)c2ccc(-c3cnc4ccccc4c3)cc2)CC1 (single isomer, unassigned) (as salt: HCl) [Example 67, 1-{4-[1-(4-Quinolin-3-yl-phenyl)-ethyl]-piperidin-1-yl}-propan-1-one] has a melting point of 215 to 219 °C.

CCC(=O)N1CCC(C(C)c2ccc(-c3cnc4ccccc4c3)cc2)CC1 (single isomer, unassigned) (as salt: HCl) [Example 68, 1-{4-[1-(4-Quinolin-3-yl-phenyl)-ethyl]-piperidin-1-yl}-propan-1-one] showed a melting point of 219 to 221 °C.

With CCC(=O)N1CCC(C(C)c2ccc(-c3ccc4c(c3)NCCC4)cc2)CC1 (centres unmarked) [Example 38, 1-(4-(1-(4-(1,2,3,4-tetrahydroquinolin-7-yl)phenyl)ethyl)piperidin-1-yl)propan-1-one] the melting point was 169 to 171 °C and the IC50 [1] was 1000 to 10000 nM.

With CCC(=O)N1CCC(C2(c3ccc(-c4cnc5ccccc5c4)cc3)CC2)CC1 [Example 40, 1-{4-[1-(4-quinolin-3-yl-phenyl)-cyclopropyl]-piperidin-1-yl}-propan-1-one] the melting point was 153 to 155 °C and the IC50 [1] was 1 to 99 nM.

Work on C=C(c1ccc(-c2cnc3ccccc3c2)cc1)C1CCN(C(=O)C2CC2)CC1 [Example 41, Cyclopropyl-{4-[1-(4-quinolin-3-yl-phenyl)-vinyl]-piperidin-1-yl}-methanone] yielded a melting point of 100 to 102 °C and an IC50 [1] of 1 to 99 nM.

COc1c(-c2ccc(CC3(C#N)CCN(C(=O)[C@H]4CCCO4)CC3)cc2)ccc2cccnc12 [Example 91, 4-[4-(8-Methoxyquinolin-7-yl)-benzyl]-1-((R)-tetrahydrofuran-2-carbonyl)-piperidine-4-carbonitrile] showed a melting point of 102 to 105 °C and an IC50 [1] of 1 to 99 nM.

For CC(C)C(=O)N1CCC(O)(Cc2ccc(-c3ccc4cnccc4c3)cc2)CC1 [Example 147, 1-[4-Hydroxy-4-(4-isoquinolin-6-yl-benzyl)-piperidin-1-yl]-2-methyl-propan-1-one], the melting point was 175 °C and the IC50 [1] was 1000 to 10000 nM.

Molecule CCC(=O)N1CCC(O)(Cc2ccc(-c3cnc4ccccc4c3)cc2)CC1 [Example 148, 1-(4-hydroxy-4-(4-(quinolin-3-yl)benzyl)piperidin-1-yl)propan-1-one] has a melting point of 89 °C and an IC50 [1] of 1000 to 10000 nM.

Work on CC(C)C(=O)N1CCC(O)(Cc2ccc(-c3cnc4ccccc4c3)cc2)CC1 [Example 149, 1-(4-hydroxy-4-(4-(quinolin-3-yl)benzyl)piperidin-1-yl)-2-methylpropan-1-one] yielded a melting point of 168 °C and an IC50 [1] of 1000 to 10000 nM.

Work on CCC(=O)N1CCC(O)(Cc2ccc(-c3ccc4cccnc4c3)cc2)CC1 [Example 150, 1-(4-hydroxy-4-(4-(quinolin-7-yl)benzyl)piperidin-1-yl)propan-1-one] yielded a melting point of 171 °C and an IC50 [1] of 100 to 999 nM.

CC(C)C(=O)N1CCC(O)(Cc2ccc(-c3ccc4cccnc4c3)cc2)CC1 [Example 151, 1-(4-hydroxy-4-(4-(quinolin-7-yl)benzyl)piperidin-1-yl)-2-methylpropan-1-one] gave a melting point of 153 °C and an IC50 [1] of 1000 to 10000 nM.

CCC(=O)N1CCC(O)(Cc2ccc(-c3ccc4occc4c3)cc2)CC1 [Example 152, 1-(4-(4-(benzofuran-5-yl)benzyl)-4-hydroxypiperidin-1-yl)propan-1-one] gave a melting point of 76 °C and an IC50 [1] of 1000 to 10000 nM.

CC(C)C(=O)N1CCC(O)(Cc2ccc(-c3ccc4occc4c3)cc2)CC1 [Example 153, 1-(4-(4-(benzofuran-5-yl)benzyl)-4-hydroxypiperidin-1-yl)-2-methylpropan-1-one] showed a melting point of 129 °C and an IC50 [1] of 1000 to 10000 nM.

In the case of CCC(=O)N1CCC(O)(Cc2ccc(-c3ccc4[nH]ccc4c3)cc2)CC1 [Example 154, 1-(4-(4-(1H-indol-5-yl)benzyl)-4-hydroxypiperidin-1-yl)propan-1-one], the melting point is reported as 100 °C and the IC50 [1] is reported as 1000 to 10000 nM.

CC(C)C(=O)N1CCC(O)(Cc2ccc(-c3ccc4[nH]ccc4c3)cc2)CC1 [Example 155, 1-(4-(4-(1H-indol-5-yl)benzyl)-4-hydroxypiperidin-1-yl)-2-methylpropan-1-one] gave a melting point of 176 °C and an IC50 [1] of 1000 to 10000 nM.

Work on CCC(=O)N1CCC(O)(Cc2ccc(-c3cc4ccccc4o3)cc2)CC1 [Example 156, 1-(4-(4-(benzofuran-2-yl)benzyl)-4-hydroxypiperidin-1-yl)propan-1-one] yielded a melting point of 174 °C and an IC50 [1] of 1000 to 10000 nM.

Work on CC(C)C(=O)N1CCC(O)(Cc2ccc(-c3cc4ccccc4o3)cc2)CC1 [Example 157, 1-(4-(4-(benzofuran-2-yl)benzyl)-4-hydroxypiperidin-1-yl)-2-methylpropan-1-one] yielded a melting point of 203 °C and an IC50 [1] of 1000 to 10000 nM.

CCC(=O)N1CCC(O)(Cc2ccc(-c3cncc4ccccc34)cc2)CC1 [Example 158, 1-(4-hydroxy-4-(4-(isoquinolin-4-yl)benzyl)piperidin-1-yl)propan-1-one] gave a melting point of 78 °C and an IC50 [1] of 1000 to 10000 nM.

CC(C)C(=O)N1CCC(O)(Cc2ccc(-c3cncc4ccccc34)cc2)CC1 [Example 159, 1-(4-hydroxy-4-(4-(isoquinolin-4-yl)benzyl)piperidin-1-yl)-2-methylpropan-1-one] showed a melting point of 196 °C and an IC50 [1] of 1000 to 10000 nM.

With CCC(=O)N1CCC(O)(Cc2ccc(-c3ccc4cnccc4c3)cc2)CC1 [Example 160, 1-(4-hydroxy-4-(4-(isoquinolin-6-yl)benzyl)piperidin-1-yl)propan-1-one] the melting point was 94 °C and the IC50 [1] was 100 to 999 nM.

Work on O=C([C@H]1CCCO1)N1CC[C@@H](Cc2ccc(-c3cnc4ccccc4c3)cc2)[C@H](O)C1 [Example 224, [trans-3-Hydroxy-4-(4-quinolin-3-yl-benzyl)-piperidin-1-yl]-(R)-tetrahydrofuran-2-yl-methanone] yielded an IC50 [1] of 1 to 99 nM.

With CCC(=O)N1CCC(F)(C(OC)c2ccc(-c3ccc4cccnc4c3C)cc2)CC1 (centres unmarked) [Example 225, 1-(4-Fluoro-4-{methoxy-[4-(8-methyl-quinolin-7-yl)-phenyl]-methyl}-piperidin-1-yl)-propan-1-one] the IC50 [1] was 1 to 99 nM.

CCC(=O)N1CCC(F)(C(OCCOC)c2ccc(-c3ccc4cccnc4c3C)cc2)CC1 (centres unmarked) [Example 226, 1-(4-Fluoro-4-{(2-methoxy-ethoxy)-[4-(8-methyl-quinolin-7-yl)-phenyl]-methyl}-piperidin-1-yl)-propan-1-one] gave an IC50 [1] of 1 to 99 nM.

Work on CCC(=O)N1CCC(F)(C(OCCN2CCOCC2)c2ccc(-c3ccc4cccnc4c3C)cc2)CC1 (centres unmarked) [Example 227, 1-{4-Fluoro-4-[[4-(8-methyl-quinolin-7-yl)-phenyl]-(2-morpholin-4-yl-ethoxy)-methyl]-piperidin-1-yl}-propan-1-one] yielded an IC50 [1] of 1 to 99 nM.

CCNC(=O)N1CCC(F)(Cc2ccc(-c3ccc4cccnc4c3C)cc2)CC1 [Example 228, N-ethyl-4-fluoro-4-[[4-(8-methyl-7-quinolyl)phenyl]methyl]piperidine-1-carboxamide] gave an IC50 [1] of 1 to 99 nM.

Work on CCNC(=O)N1CCC(Cc2ccc(-c3ccc4cccnc4c3C)cc2)CC1 [Example 229, N-ethyl-4-[[4-(8-methyl-7-quinolyl)phenyl]methyl]piperidine-1-carboxamide] yielded an IC50 [1] of 1 to 99 nM.

CCNC(=O)N1CCC(Cc2ccc(-c3ccc4cccnc4c3OC)cc2)CC1 [Example 230, N-ethyl-4-[[4-(8-methoxy-7-quinolyl)phenyl]methyl]piperidine-1-carboxamide] gave an IC50 [1] of 1 to 99 nM.

Work on CONC(=O)N1CCC(Cc2ccc(-c3ccc4cccnc4c3C)cc2)CC1 [Example 231, N-methoxy-4-[[4-(8-methyl-7-quinolyl)phenyl]methyl]piperidine-1-carboxamide] yielded an IC50 [1] of 1 to 99 nM.

In the case of CCONC(=O)N1CCC(Cc2ccc(-c3ccc4cccnc4c3C)cc2)CC1 [Example 232, N-ethoxy-4-[[4-(8-methyl-7-quinolyl)phenyl]methyl]piperidine-1-carboxamide], the IC50 [1] is reported as 1 to 99 nM.

With Cc1c(-c2ccc(CC3CCN(C(=O)N(C)C)CC3)cc2)ccc2cccnc12 [Example 233, N,N-dimethyl-4-[[4-(8-methyl-7-quinolyl)phenyl]methyl]piperidine-1-carboxamide] the IC50 [1] was 1 to 99 nM.

Work on Cc1c(-c2ccc(CC3CCN(C(=O)N4CCCC4)CC3)cc2)ccc2cccnc12 [Example 234, [4-[[4-(8-methyl-7-quinolyl)phenyl]methyl]-1-piperidyl]-pyrrolidin-1-yl-methanone] yielded an IC50 [1] of 1 to 99 nM.
